Values quoted from earlier work as cited in paper PMC7904743, “WIDOCK: a reactive docking protocol for virtual screening of covalent inhibitors” (Journal of Computer-Aided Molecular Design, 2021).
Like-named read-outs stand apart in the source and are kept apart here.

Experiments:
OTUB2 = OTUB2 protein labeling; experimental actives if % labeling higher than 50%; cited from earlier work
NUDT7 = conditions: protein labeling at 200 μM; experimental actives if % labeling higher than 50%; cited from earlier work
[1] = thiol reactivity, cited from earlier work
[2] = natural log of average kinetic rate constant
[3] = natural log of average rate constant

Row | Structure (SMILES) | OTUB2 % labeling (OTUB2) [%] | NUDT7 % labeling (NUDT7) [%] | ln(avg k) [1, 2] | ln(avg k) [1, 3]
1 | CN(C(=O)CCl)C(C)(C)C#N [PCM-0102782, CN(C(=O)CCl)C(C)(C)C#N] | 0 | 0 | -16.514 | -16.514
2 | CC(c1ccc(F)cc1)N(C)C(=O)CCl (centres unmarked) [PCM-0102783, CC(c1ccc(F)cc1)N(C)C(=O)CCl] | 0 | 19 | -16.224 | -16.224
3 | O=C(CCl)Nc1nc(-c2cccs2)cs1 [PCM-0102784, O=C(CCl)Nc1nc(-c2cccs2)cs1] | 7 | 77 | -16.029 | -16.029
4 | Cc1ccsc1CN(C)C(=O)CCl [PCM-0102785, Cc1ccsc1CN(C)C(=O)CCl] | 0 | 20 | -15.849 | -15.849
5 | CC(C)(C)OC(=O)N1CCN(C(=O)CCl)CC1 [PCM-0102786, CC(C)(C)OC(=O)N1CCN(C(=O)CCl)CC1] | 0 | 0 | -15.946 | -15.946
6 | CN(Cc1ccccc1F)C(=O)CCl [PCM-0102787, CN(Cc1ccccc1F)C(=O)CCl] | 0 | 0 | -16.194 | -16.194
7 | CC1CC(C)CN(C(=O)CCl)C1 (centres unmarked) [PCM-0102789, CC1CC(C)CN(C(=O)CCl)C1] | 8 | 0 | -16.705 | -16.705
8 | O=C(CCl)NCc1cc(F)cc(F)c1 [PCM-0102790, O=C(CCl)NCc1cc(F)cc(F)c1] | 0 | 0 | -16.548 | -16.548
9 | CC(c1nc2ccccc2s1)N(C)C(=O)CCl (centres unmarked) [PCM-0102793, CC(c1nc2ccccc2s1)N(C)C(=O)CCl] | 19 | 0 | -15.755 | -15.755
10 | O=C(CCl)NCC1CCCc2ccccc21 (centres unmarked) [PCM-0102794, O=C(CCl)NCC1CCCc2ccccc21] | 34 | 0 | -16.479 | -16.479
11 | CC1CN(C(=O)CCl)CC(C)O1 (centres unmarked) [PCM-0102796, CC1CN(C(=O)CCl)CC(C)O1] | 0 | 0 | -15.522 | -15.522
12 | O=C(CCl)Nc1cccc(Cl)c1Cl [PCM-0102797, O=C(CCl)Nc1cccc(Cl)c1Cl] | 0 | 15 | -15.881 | -15.881
13 | CC(NC(=O)CCl)c1ccco1 (centres unmarked) [PCM-0102798, CC(NC(=O)CCl)c1ccco1] | 19 | 14 | -16.737 | -16.737
14 | Cc1cc(Br)ccc1NC(=O)CCl [PCM-0102799, Cc1cc(Br)ccc1NC(=O)CCl] | 61 | 24 | -16.305 | -16.305
15 | O=C(CCl)NCc1nc2ccccc2s1 [PCM-0102803, O=C(CCl)NCc1nc2ccccc2s1] | 37 | 0 | -16.252 | -16.252
16 | NS(=O)(=O)c1ccc(NC(=O)CCl)cc1 [PCM-0102807, NS(=O)(=O)c1ccc(NC(=O)CCl)cc1] | 29 | 0 | -15.463 | -15.463
17 | O=C(CCl)Nc1nc(-c2ccc(F)cc2)cs1 [PCM-0102809, O=C(CCl)Nc1nc(-c2ccc(F)cc2)cs1] | 21 | 37 | -15.559 | -15.559
18 | C#CCN1CCN(C(=O)CCl)CC1 [PCM-0102811, C#CCN1CCN(C(=O)CCl)CC1] | 0 | 0 | -15.973 | -15.973

Row | Structure (SMILES) | OTUB2 % labeling (OTUB2) [%] | NUDT7 % labeling (NUDT7) [%] | ln(avg k) [1, 2] | ln(avg k) [1, 3]
19 | O=C(CCl)N1CCN(Cc2ccc3c(c2)CCO3)CC1 [PCM-0102814, O=C(CCl)N1CCN(Cc2ccc3c(c2)CCO3)CC1] | 0 | 0 | -15.537 | -15.537
20 | CNC(=O)C1CCN(C(=O)CCl)CC1 [PCM-0102815, CNC(=O)C1CCN(C(=O)CCl)CC1] | 8 | 0 | -15.403 | -15.403
21 | CC(NC(=O)CCl)c1ccc2c(c1)CC(=O)N2 (centres unmarked) [PCM-0102816, CC(NC(=O)CCl)c1ccc2c(c1)CC(=O)N2] | 29 | 22 | -16.367 | -16.367
22 | CC(C)(C)NC(=O)CNC(=O)CCl [PCM-0102817, CC(C)(C)NC(=O)CNC(=O)CCl] | 41 | 0 | -16.378 | -16.378
23 | O=C(CCl)N1CCN(Cc2ccc(Cl)cc2)CC1 [PCM-0102818, O=C(CCl)N1CCN(Cc2ccc(Cl)cc2)CC1] | 17 | 0 | -15.454 | -15.454
24 | Cc1cccc(CNC(=O)CCl)c1 [PCM-0102821, Cc1cccc(CNC(=O)CCl)c1] | 86 | 0 | -16.579 | -16.579
25 | CC1CCc2ccccc2N1C(=O)CCl (centres unmarked) [PCM-0102822, CC1CCc2ccccc2N1C(=O)CCl] | 0 | 0 | -16.310 | -16.310
26 | O=C(CCl)N1CCC2(CC1)OCCO2 [PCM-0102823, O=C(CCl)N1CCC2(CC1)OCCO2] | 0 | 0 | -16.068 | -16.068
27 | O=C(CCl)N1CCCC2CCCCC21 (centres unmarked) [PCM-0102826, O=C(CCl)N1CCCC2CCCCC21] | 0 | 7 | -16.060 | -16.060
28 | COC(=O)C1(NC(=O)CCl)CCC(C)CC1 (centres unmarked) [PCM-0102827, COC(=O)C1(NC(=O)CCl)CCC(C)CC1] | 0 | 0 | -16.743 | -16.743
29 | CCC1CCCCN1C(=O)CCl (centres unmarked) [PCM-0102828, CCC1CCCCN1C(=O)CCl] | 0 | 4 | -16.282 | -16.282
30 | Cc1ccccc1CC(=O)NNC(=O)CCl [PCM-0102829, Cc1ccccc1CC(=O)NNC(=O)CCl] | 30 | 0 | -17.272 | -17.272
31 | CC1CN(C(=O)CCl)CCO1 (centres unmarked) [PCM-0102830, CC1CN(C(=O)CCl)CCO1] | 0 | 0 | -16.218 | -16.218
32 | CC1CCN(C(=O)CCl)C2CCCCC12 (centres unmarked) [PCM-0102831, CC1CCN(C(=O)CCl)C2CCCCC12] | 0 | 37 | -15.612 | -15.612
33 | O=C(CCl)N(C1CC1)C1CCS(=O)(=O)C1 (centres unmarked) [PCM-0102832, O=C(CCl)N(C1CC1)C1CCS(=O)(=O)C1] | 43 | 0 | -16.200 | -16.200
34 | CC(C)(C)N(Cc1cccc(F)c1)C(=O)CCl [PCM-0102833, CC(C)(C)N(Cc1cccc(F)c1)C(=O)CCl] | 0 | 0 | -16.964 | -16.964
35 | O=C(CCl)N1CCN(S(=O)(=O)c2ccc3ccccc3c2)CC1 [PCM-0102836, O=C(CCl)N1CCN(S(=O)(=O)c2ccc3ccccc3c2)CC1] | 0 | 0 | -15.169 | -15.169
